From patent US6479434B1, “Composition and method for treating plants with exogenous chemicals” (Monsanto Technology LLC, priority 1996, dated 2002) come the findings set out here.

What all share (format): in vivo
For experiment [1], the system named is Japanese millet (Echinochloa crus-galli, ECHCF). Kind of experiment: Example 52 greenhouse herbicidal inhibition, acifluorfen sodium compositions (Table 52). As to conditions: evaluated 10 days after application. From the text: (§1) Seeds of the plant species indicated were planted in 85 mm square pots in a soil mix which was previously steam sterilized and prefertilized with a 13-13-14 NPK slow release fertilizer at a rate of 3.6 kg/m^3. The pots were placed in a greenhouse with sub-irrigation. About one week after emergence, seedlings were thinned as needed, including removal of any unhealthy or abnormal plants, to create a uniform series of test pots.
(§2) The plants were maintained for the duration of the test in the greenhouse where they received a minimum of 14 hours of light per day. If natural light was insufficient to achieve the daily requirement, artificial light with an intensity of approximately 475 microeinsteins was used to make up the difference. Exposure temperatures were not precisely controlled but averaged about 27° C. during the day and about 18° C. during the night. Plants were sub-irrigated throughout the test to ensure adequate soil moisture levels.
(§3) A set of pots was left untreated as a reference against which effects of the treatments could later be evaluated.
(§4) Application of glyphosate compositions was made by spraying with a track sprayer fitted with a 9501E nozzle calibrated to deliver a spray volume of 93 liters per hectare (l/ha) at a pressure of 166 kilopascals (kPa). After treatment, pots were returned to the greenhouse until ready for evaluation.
(§5) For evaluation of herbicidal effectiveness, all plants in the test were examined by a single practiced technician, who recorded percent inhibition, a visual measurement of the effectiveness of each treatment by comparison with untreated plants.
(§6) Velvetleaf (Abutilon theophrasti, ABUTH), Japanese millet (Echinochloa crus-galli, ECHCF) and prickly sida (Sida spinosa, SIDSP) plants were grown and treated by the standard procedures given above. Applications of spray compositions were made 15 days after planting ABUTH, 9 days after planting ECHCF and 22 days after planting SIDSP. Evaluation of herbicidal inhibition was done 10 days after application.

The subject of experiment [2] is Prickly sida (Sida spinosa, SIDSP). The description is as above. The conditions noted are these: evaluated 10 days after application.
From the text: as §1, §2, §3, §4, §5, §6

Experiment [3] deals with Velvetleaf (Abutilon theophrasti, ABUTH). The experiment is described as above. The conditions noted are these: evaluated 10 days after application.
From the text: as §1, §2, §3, §4, §5, §6

Experiment [4] relates to Japanese millet (Echinochloa crus-galli, ECHCF). The experiment is described as follows: Example 53 greenhouse herbicidal inhibition, asulam compositions (Table 53). As to conditions: asulam rate 200 g a.i./ha; evaluated 14 days after application.
From the text: as §1
(§7) The plants were maintained for the duration of the test in the greenhouse where they received a minimum of 14 hours of light per day. If natural light was insufficient to achieve the daily requirement, artificial light with an intensity of approximately 475 microeinsteins was used to make up the difference. […]
as §3, §4
(§8) For evaluation of herbicidal effectiveness, all plants in the test were examined by a single practiced technician, who recorded percent inhibition, a visual measurement of the effectiveness of each treatment by comparison with untreated plants. […]

Experiment [5] has as its system Prickly sida (Sida spinosa, SIDSP). The description is as above. The conditions noted are these: asulam rate 200 g a.i./ha; evaluated 14 days after application.
From the text: as §1, §7, §3, §4, §8

Experiment [6] has as its system Japanese millet (Echinochloa crus-galli, ECHCF). Kind of experiment: Example 54 greenhouse herbicidal inhibition, dicamba sodium compositions (Table 54). The conditions noted are these: evaluated 17 days after application.
From the text: as §1, §2, §3, §4, §5
(§9) Velvetleaf (Abutilon theophrasti, ABUTH), Japanese millet (Echinochloa crus-galli, ECHCF) and prickly sida (Sida spinosa, SIDSP) plants were grown and treated by the standard procedures given above. Applications of spray compositions were made 14 days after planting ABUTH, 8 days after planting ECHCF and 21 days after planting SIDSP. Evaluation of herbicidal inhibition was done 17 days after application.

The test system of experiment [7] is Prickly sida (Sida spinosa, SIDSP). Described as above. The conditions noted are these: evaluated 17 days after application.
From the text: as §1, §2, §3, §4, §5, §9

Experiment [8] concerns Velvetleaf (Abutilon theophrasti, ABUTH). The description is as above. As to conditions: evaluated 17 days after application.
From the text: as §1, §2, §3, §4, §5, §9

Experiment [9] has as its system Japanese millet (Echinochloa crus-galli, ECHCF). Kind of experiment: Example 57 greenhouse herbicidal inhibition, fluazifop-p-butyl compositions (Table 57). The conditions noted are these: fluazifop-p rate 5 g a.i./ha; evaluation 10 days after application.
From the text: as §1, §2, §3
[…] After treatment, pots were returned to the greenhouse until ready for evaluation.
as §8

Experiment [10] shares this test system. Kind of experiment: Example 51 greenhouse herbicidal inhibition, paraquat dichloride compositions (Table 51). As to conditions: evaluated 12 days after application.
From the text: as §1, §2, §3, §4, §5
(§10) Velvetleaf (Abutilon theophrasti, ABUTH), Japanese millet (Echinochloa crus-galli, ECHCF) and prickly sida (Sida spinosa, SIDSP) plants were grown and treated by the standard procedures given above. Applications of spray compositions were made 14 days after planting ABUTH, 8 days after planting ECHCF and 21 days after planting SIDSP. Evaluation of herbicidal inhibition was done 12 days after application.

For experiment [11], the system named is Prickly sida (Sida spinosa, SIDSP). Described as above. As to conditions: evaluated 12 days after application.
From the text: as §1, §2, §3, §4, §5, §10

In experiment [12] the test system is Velvetleaf (Abutilon theophrasti, ABUTH). The experiment is described as above. As to conditions: evaluated 12 days after application.
From the text: as §1, §2, §3, §4, §5, §10

Turning to `O=C(O)c1cc(Oc2ccc(C(F)(F)F)cc2Cl)ccc1[N+](=O)[O-]` [Acifluorfen], the “% Inhibition ECHCF” value in [1] (acifluorfen rate 25 g a.i./ha) came out at 2%; in [1] (acifluorfen rate 50 g a.i./ha), 7%; in experiment [1] (acifluorfen rate 100 g a.i./ha), 18%; in experiment [1] (acifluorfen rate 200 g a.i./ha), 35%. Further, the “% Inhibition SIDSP” value is given as 15% in experiment [2] (acifluorfen rate 25 g a.i./ha), 17% in [2] (acifluorfen rate 50 g a.i./ha), 35% in experiment [2] (acifluorfen rate 100 g a.i./ha) and 40% in [2] (acifluorfen rate 200 g a.i./ha). The “% Inhibition ABUTH” value in experiment [3] (acifluorfen rate 25 g a.i./ha) was found to be 20%; in experiment [3] (acifluorfen rate 50 g a.i./ha), 32%; in experiment [3] (acifluorfen rate 100 g a.i./ha) it was 52%; in experiment [3] (acifluorfen rate 200 g a.i./ha), 62%.

Take `COC(=O)NS(=O)(=O)c1ccc(N)cc1` [Asulam]: in [4], the “% Inhibition ECHCF” value worked out at 12%. In addition, the “% Inhibition SIDSP” value in [5] is 0%.

Regarding `COc1c(Cl)ccc(Cl)c1C(=O)O` [Dicamba], the “% Inhibition ECHCF” value came out at 0% in experiment [6] (dicamba rate 25 g a.i./ha), 0% in experiment [6] (dicamba rate 50 g a.i./ha), 0% in [6] (dicamba rate 100 g a.i./ha) and 5% in [6] (dicamba rate 200 g a.i./ha). In addition, the “% Inhibition SDSP” value is recorded as 30% in experiment [7] (dicamba rate 25 g a.i./ha), 40% in experiment [7] (dicamba rate 50 g a.i./ha), 50% in experiment [7] (dicamba rate 100 g a.i./ha) and 58% in [7] (dicamba rate 200 g a.i./ha). Further, the “% Inhibition ABUTH” value in experiment [8] (dicamba rate 25 g a.i./ha) amounted to 47%; in experiment [8] (dicamba rate 50 g a.i./ha), 63%; in experiment [8] (dicamba rate 100 g a.i./ha), 82%; in [8] (dicamba rate 200 g a.i./ha), 93%.

For the molecule `CCCCOC(=O)[C@@H](C)Oc1ccc(Oc2ccc(C(F)(F)F)cn2)cc1` [Fluazifop-p-butyl (technical)], the “% Inhibition ECHCF” value in experiment [9] is on record as 3%.

For `C[n+]1ccc(-c2cc[n+](C)cc2)cc1` [Paraquat dichloride], the “% Inhibition ECHCF” value in experiment [10] (paraquat rate 25 g a.i./ha) was 83%; in [10] (paraquat rate 50 g a.i./ha), 78%; in [10] (paraquat rate 100 g a.i./ha), 84%; in experiment [10] (paraquat rate 200 g a.i./ha), 95%. Further, the “% Inhibition SIDSP” value in experiment [11] (paraquat rate 25 g a.i./ha) was 55%; in [11] (paraquat rate 50 g a.i./ha), 60%; in experiment [11] (paraquat rate 100 g a.i./ha), 69%; in [11] (paraquat rate 200 g a.i./ha) it was 99%. Further, the “% Inhibition ABUTH” value is listed as 50% in experiment [12] (paraquat rate 25 g a.i./ha), 57% in [12] (paraquat rate 50 g a.i./ha), 73% in experiment [12] (paraquat rate 100 g a.i./ha) and 85% in experiment [12] (paraquat rate 200 g a.i./ha).
